Laboratory results reported in publication PMC9739815, “Akt/mTOR Targeting Activity of Resveratrol Derivatives in Non-Small Lung Cancer” (Molecules, 2022).

Legend:
Format in all cases: cell-based, human
[1] = system: H23 cells; test: Colony formation assay, H23 cells; details: for reduction of number of forming colonies: 24 h treatment, 7 days; for reduction of number of forming colonies / decrease of colony size: vs control
Protocol: (§1) Colony formation assay was used to confirm the anti-cancer action of resveratrol derivatives, as it is a cell proliferation assay which can detect the ability of a single cell to grow into a colony. NSCLC cells were seeded and treated with RD2 and RD3 (1–200 μM) for 24 h. The treated cells were subjected to colony formation assay for 7 days. The crystal violet-staining colony represented the colony suppression effect of RD2 and RD3 compared to the untreated control (Figure 3a,b). The RD2 compound dramatically abolished the forming colony. Colony number was absent in response to RD2 at the concentrations of 100 and 200 μM, whereas there was no significant response to RD3 (Figure 3a,b).
(§2) Cells were seeded at a density of 300 cells/well into 6-well plate and then further treated with various concentrations resveratrol derivatives for 24 h after that the medium was replaced and the cell were incubated for colony number and colony size were investigated after fixing with methanol and acetic acid (3:1) solution and staining with 0.05% w/v crystal violet in 4% formaldehyde.

[2] = system: p-Akt/Akt in H23 cells; test: Western blot of p-Akt/Akt, H23 cells; details: 12 h
Protocol: (§3) NSCLC cells (A549 and H23) were treated with RD2 and RD3 (10–100 μM) for 12 h. After which, all cells were collected and the expression levels of Akt, p-Akt, mTOR, and p-mTOR were investigated by Western blot analysis (Figure 5a, Figure 6a, Figure 7a and Figure 8a). […] Immunofluorescence staining of Akt, p-Akt, mTOR, and p-mTOR was performed in RD2 and RD3 treated cells. The results further confirm the effect of RD2 and RD3 on the Akt/mTOR pathway.
(§4) Western blotting was used to detect the presence of specific protein. Cells were seed at a density of 4 × 10^5 cells/well in 6 well plates overnight. Cells were treated with various concentrations RD1-RD5 were treated for 12 h. After treatment, the apoptosis cells were collected by centrifuging media with 1500 rpm for 5 min and aspirating supernatants. Then, cells were washed with cold 1× PBS and incubated with 1X RIPPA 40 µL containing 10× RIPA buffer 100 µL, protease inhibitors (PI) 100 µL, PMSF 10 µL, and Triton × 10 µL for 30 min on ice. BCA protein assay kit from Pierce Biotechnology (Rockford, IL, USA) analyzed protein concentrations. The extracted proteins were separated by 7.5–10% sodium dodecyl sulfate polyacrylamide gel electrophoresis (SDS-PAGE) and transferred to polyvinylidene difluoride membrane (PVDF). Then, the membranes were blocked with 5% non-fat milk powder for 2 h. After that, they were incubated with primary antibody at 4 °C Akt (#9272), phosphorylated Akt (#4060), mTOR (#2983S), and p-mTOR (#5536S) overnight. The membranes were washed with Tris-buffered saline/Tween 20 3 times and incubated with secondary antibodies for 2 h. Finally, the protein bands were detected using chemiluminescence substrate and exposed by Chemiluminescent ImageQuant LAS4000. Protein bands were analyzed using Image J software.

[3] = system: A549 cells; test: Colony formation assay, A549 cells; details: for reduction of number of forming colonies: 24 h treatment, 7 days; for reduction of number of forming colonies / decrease of colony size: vs control
Protocol: as §1, §2

[4] = system: p-Akt/Akt in A549 cells; test: Western blot of p-Akt/Akt, A549 cells; details: 12 h
Protocol: as §3, §4

[5] = system: p-mTOR in A549 cells; test: Immunofluorescence staining of p-mTOR, A549 cells; details: 12 h, RD2 effect at 50–100 μM
Protocol: as §3
(§5) Cells were seeded at a density of 1 × 10^4 cells/well in 6-well plates overnight. Cells were treated with various concentrations resveratrol derivatives ([…]) and were treated for 12 h. Then, they were fixed with 4% paraformaldehyde in PBS for 15 min, permeabilized for 5 min with 0.5% Triton-X, and blocked with 0.1% Triton-X in 10% FBD in PBS for 1 h at room temperature. Cells were added to the primary antibody Akt (#9272), phosphorylated Akt (#4060), mTOR (#2983S), and p-mTOR (#5536S). Then, they were incubated at 4 °C overnight. After that, they were incubated with secondary antibody for 1 h and stained with Hoechst 33342 for 30 min at room temperature in a dark place. The images were visualized under a fluorescent microscope (Olympus DP70, Melville, NY, USA) and analyzed by The ImageJ software.

[6] = system: A549 cells; test: Hoechst 33342/PI nuclear staining apoptosis assay, A549 cells; details: 24 h
Protocol: (§6) Apoptosis is considered as an important mechanism of action of anti-cancer drugs. The important characteristics of apoptotic cells include the nuclear morphological changes, chromatin condensation, and DNA fragmentation. Hoechst 33342 and propidium iodide (PI) double staining was utilized to determine the mode of cell death by monitoring the nucleus morphology of apoptotic cells as well as their membrane integrity. Cells were seeded in a 96-well plate at the density of 1 × 10^4 cells/well and treated with various concentrations of RD2 and RD3 (10–200 μM) for 24 h. The cells were co-stained with Hoechst 33342 and PI. […] The red fluorescence of PI indicated a late apoptosis cell and necrotic cells.
(§7) This method was applied to define apoptotic and necrotic cell death by using nuclear staining with Hoechst 33342. The cells were seeded on 96-well plates at the density 1 × 10^4 cells per well in 96-well plates and incubated overnight. The cells were treated with various concentrations of RD1-RD5 and incubated for 24 h at 37 °C. Afterward, the cells were incubated with Hoechst 33342 (10 μg/mL) / PI (5 μg/mL) solution for 30 min at 37 °C. Then, they were visualized and imaged under a fluorescence microscope (Olympus DP70, Melville, NY, USA). Results are reported as a percentage of apoptotic cells.

[7] = system: H23 cells; test: Hoechst 33342/PI nuclear staining apoptosis assay, H23 cells; details: 24 h
Protocol: as §6, §7

[8] = system: p-Akt in H23 cells; test: Immunofluorescence staining of p-Akt, H23 cells; details: 10–100 µM, vs untreated control
Protocol: as §3, §5

[9] = system: p-Akt in A549 cells; test: Immunofluorescence staining of p-Akt, A549 cells; details: 10–100 µM, vs untreated control
Protocol: as §3, §5

Structure (SMILES) | reduction of number of forming colonies ([1]; 10 μM) [%] | reduction of number of forming colonies ([1]; 100 μM) [%] | reduction of number of forming colonies ([1]; 200 μM) [%] | reduction of number of forming colonies ([3]; 10 μM) [%] | reduction of number of forming colonies ([3]; 100 μM) [%] | reduction of number of forming colonies ([3]; 200 μM) [%] | p-mTOR signal intensity [5] | apoptotic ratio ([6]; 200 μM) [%] | apoptotic ratio ([7]; 200 μM) [%] | other results
COc1cc(CCc2ccc(O)c(OC)c2)ccc1O [RD2, 4,4′-(ethane-1,2-diyl)bis(2-methoxyphenol)] | 25.43 | 94.16 | 98.23 | 31.04 | 98.18 | 99.40 | dramatic decrease | 86.30 | 75.79 | decrease of colony size ([1]; 100 μM): 64.42%; decrease of colony size ([1]; 200 μM): 65.98%; p-Akt/Akt protein expression levels ([2]; 50 μM, vs untreated control): significant decrease; p-Akt/Akt protein expression levels ([2]; 100 μM, vs untreated control): significant decrease; decrease of colony size ([3]; 100 μM): 71.66%; decrease of colony size ([3]; 200 μM): 85.42%; p-Akt/Akt protein expression levels ([4]; A549 cells, 50 μM, vs untreated control): significant decrease; p-Akt/Akt protein expression levels ([4]; A549 cells, 100 μM, vs untreated control): significant decrease; apoptotic ratio ([6]; 10 μM): 23.25%; apoptotic ratio ([6]; 100 μM): 61.26%; apoptotic ratio ([7]; 100 μM): 36.63%
COc1ccc(CCc2ccc(O)c(OC)c2)cc1O [RD3, 4-(3-hydroxy-4-methoxyphenethyl)-2-methoxyphenol] | 24.83 | 27.70 | 59.74 | 20.44 | 21.94 | 38.91 | only minimally affected | 13.25 | 18.57 | p-Akt intensity [8]: significantly increased; effect on colony size ([1]; 10–200 μM): no significant effect; p-Akt/Akt protein expression levels ([2]; 10–100 μM): increased; effect on colony size ([3]; 10–200 μM): no significant effect; p-Akt intensity [9]: significantly increased; p-Akt/Akt protein expression levels ([4]; A549 cell, 10–200 μM): increased
